Results as given in PubChem BioAssay (NCI).
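Results reflect a 48-hour exposure of cells in 96-well plates to compound at five concentrations. GI50 marks 50% less growth. TGI: total growth inhibition.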

Key:
Test in all cases: growth of human tumour cells (NCI), 48 h
MDA-N = system: MDA-N
DMS 273 small cell lung = system: DMS 273 small cell lung
KM20L2 colon = system: KM20L2 colon
LXFL 529 NSCLC = system: LXFL 529 NSCLC
SNB-78 CNS = system: SNB-78 CNS
DLD-1 colon = system: DLD-1 colon
HOP-18 NSCLC = system: HOP-18 NSCLC
RXF-631 renal = system: RXF-631 renal
XF 498 CNS = system: XF 498 CNS

Structure (SMILES): CCON=C1C(C)(C)C(C)(C)C(C)(C)C1(C)C
- TGI (MDA-N): > 100 µM

Structure (SMILES): O=c1[nH]c(-c2ccccc2)nc2ccc(Cl)cc12
- TGI (DMS 273 small cell lung): > 100 µM
- TGI (KM20L2 colon): > 100 µM
- TGI (LXFL 529 NSCLC): > 100 µM
- TGI (SNB-78 CNS): > 100 µM

Structure (SMILES): CS(=O)(=O)N(CCC#N)c1ccc(/C=N/NC(=O)CC(=O)Nc2cccc(Cl)c2)cc1
- TGI (DLD-1 colon): > 100 µM
- TGI (DMS 273 small cell lung): > 100 µM
- TGI (HOP-18 NSCLC): > 100 µM
- TGI (KM20L2 colon): > 100 µM
- TGI (LXFL 529 NSCLC): > 100 µM
- TGI (SNB-78 CNS): > 100 µM

Structure (SMILES): C[N+](C)([O-])CCCNc1c2ccccc2nc2cccc([N+](=O)[O-])c12
- TGI (MDA-N): 0.524 µM

Structure (SMILES): Cn1ccnc1C(c1nccn1C)C(C)(C)[N+](=O)[O-]
- TGI (DLD-1 colon): > 100 µM
- TGI (DMS 273 small cell lung): > 100 µM
- TGI (RXF-631 renal): > 100 µM
- TGI (SNB-78 CNS): > 100 µM
- TGI (XF 498 CNS): > 100 µM

Structure (SMILES): Cc1ccc(C(=O)O/N=C2/CCCCC2CN(C)C)cc1 (stereo unspecified)
- TGI (DLD-1 colon): > 100 µM
- TGI (DMS 273 small cell lung): > 100 µM
- TGI (HOP-18 NSCLC): > 100 µM
- TGI (KM20L2 colon): > 100 µM
- TGI (LXFL 529 NSCLC): > 100 µM
- TGI (RXF-631 renal): > 100 µM
- TGI (SNB-78 CNS): > 100 µM

Structure (SMILES): O=C1O[C@H](C(Cl)(Cl)Cl)N2CCCC12 (stereo partly specified)
- TGI (DMS 273 small cell lung): > 100 µM
- TGI (HOP-18 NSCLC): > 100 µM
- TGI (KM20L2 colon): > 100 µM
- TGI (LXFL 529 NSCLC): > 100 µM
- TGI (XF 498 CNS): > 100 µM

Structure (SMILES): COc1ccccc1/C=C1\CCC(CNc2ccc(Cl)cc2)C1=O (stereo unspecified)
- TGI (DLD-1 colon): 17.5 µM
- TGI (DMS 273 small cell lung): 20.2 µM
- TGI (HOP-18 NSCLC): 30.2 µM
- TGI (KM20L2 colon): 4.87 µM
- TGI (LXFL 529 NSCLC): 13.7 µM
- TGI (SNB-78 CNS): 54.5 µM
- TGI (XF 498 CNS): 42.7 µM

Structure (SMILES): CNS(=O)(=O)NN(C)S(=O)(=O)c1ccc(Cl)cc1
- TGI (DLD-1 colon): > 100 µM
- TGI (DMS 273 small cell lung): > 100 µM
- TGI (KM20L2 colon): > 100 µM
- TGI (LXFL 529 NSCLC): > 100 µM
- TGI (RXF-631 renal): > 100 µM
- TGI (XF 498 CNS): > 100 µM

Structure (SMILES): Oc1ccc2occ3c2c1CCC3
- TGI (DLD-1 colon): > 100 µM
- TGI (DMS 273 small cell lung): > 100 µM
- TGI (HOP-18 NSCLC): > 100 µM
- TGI (KM20L2 colon): > 100 µM
- TGI (LXFL 529 NSCLC): > 100 µM
- TGI (RXF-631 renal): > 100 µM
- TGI (SNB-78 CNS): > 100 µM
- TGI (XF 498 CNS): > 100 µM

Structure (SMILES): CC1CCC2(NC1)OC1CC3[C@@H]4CC=C5C=CCC[C@]5(C)C4CC[C@]3(C)C1C2C (stereo partly specified)
- TGI (DLD-1 colon): 58.2 µM
- TGI (HOP-18 NSCLC): > 100 µM
- TGI (KM20L2 colon): 33.8 µM
- TGI (SNB-78 CNS): > 100 µM
- TGI (XF 498 CNS): 33 µM

Structure (SMILES): COc1cc(N=Nc2ccccc2)cc(/C=N\[N-]C(N)=S)c1[O-].COc1cc(N=Nc2ccccc2)cc(/C=N\[N-]C(N)=S)c1[O-].[Fe+4]
- GI50 (DLD-1 colon): 18.5 µM
- TGI (DLD-1 colon): > 100 µM
- GI50 (LXFL 529 NSCLC): 13.7 µM
- TGI (LXFL 529 NSCLC): > 100 µM
- GI50 (SNB-78 CNS): > 100 µM
- TGI (SNB-78 CNS): > 100 µM

Structure (SMILES): NC1CCCCC1N.O=C([O-])P(=O)([O-])[O-].[Na+].[Pt+4] (stereo unspecified)
- GI50 (DLD-1 colon): > 100 µM
- TGI (DLD-1 colon): > 100 µM
- GI50 (HOP-18 NSCLC): > 100 µM
- TGI (HOP-18 NSCLC): > 100 µM
- GI50 (KM20L2 colon): > 100 µM
- TGI (KM20L2 colon): > 100 µM
- GI50 (LXFL 529 NSCLC): > 100 µM
- TGI (LXFL 529 NSCLC): > 100 µM
- GI50 (SNB-78 CNS): > 100 µM
- TGI (SNB-78 CNS): > 100 µM

Structure (SMILES): COc1ccc(S(=O)(=O)N/N=C/CN2C(=O)c3ccccc3C2=O)cc1OC
- TGI (DLD-1 colon): > 100 µM
- TGI (DMS 273 small cell lung): > 100 µM
- TGI (KM20L2 colon): > 100 µM
- TGI (LXFL 529 NSCLC): > 100 µM
- TGI (RXF-631 renal): > 100 µM
- TGI (XF 498 CNS): > 100 µM

Structure (SMILES): O=C(O)CNS(=O)(=O)c1ccc(NC(=O)c2ccc(F)cc2)cc1
- TGI (DLD-1 colon): > 100 µM
- TGI (DMS 273 small cell lung): > 100 µM
- TGI (HOP-18 NSCLC): > 100 µM
- TGI (KM20L2 colon): > 100 µM
- TGI (LXFL 529 NSCLC): > 100 µM
- TGI (RXF-631 renal): > 100 µM
- TGI (XF 498 CNS): > 100 µM

Structure (SMILES): CC(C)COC(=O)N1N=NC2C3OC(CC3=O)C21 (stereo unspecified)
- TGI (DLD-1 colon): > 100 µM
- TGI (DMS 273 small cell lung): > 100 µM
- TGI (HOP-18 NSCLC): > 100 µM
- TGI (KM20L2 colon): > 100 µM
- TGI (LXFL 529 NSCLC): > 100 µM
- TGI (XF 498 CNS): > 100 µM

Structure (SMILES): CCN(CC)c1ccc(N=C2C=CC(=O)c3ncccc32)c(C)c1
- TGI (DLD-1 colon): 12 µM
- TGI (DMS 273 small cell lung): 20.6 µM
- TGI (HOP-18 NSCLC): 22.8 µM
- TGI (KM20L2 colon): 26.5 µM
- TGI (LXFL 529 NSCLC): 8.67 µM
- TGI (RXF-631 renal): 28.6 µM
- TGI (SNB-78 CNS): 31.2 µM
- TGI (XF 498 CNS): 5.19 µM

Structure (SMILES): CCOCC(=O)N[C@H]1CCc2cc(OC)c(OC)c(OC)c2-c2ccc(SC)c(=O)cc21
- TGI (DLD-1 colon): > 100 µM
- TGI (DMS 273 small cell lung): > 100 µM
- TGI (HOP-18 NSCLC): > 100 µM
- TGI (KM20L2 colon): < 0.01 µM
- TGI (LXFL 529 NSCLC): > 100 µM
- TGI (MDA-N): < 0.01 µM
- TGI (RXF-631 renal): > 46.4 µM
- TGI (SNB-78 CNS): > 100 µM
- TGI (XF 498 CNS): 4.49 µM

Structure (SMILES): CS(=O)(=O)OCCN1CCN(C(=O)c2cccc3c(Nc4ccc(S(N)(=O)=O)cc4)c4ccccc4nc23)CC1
- TGI (DLD-1 colon): > 65.3 µM
- TGI (DMS 273 small cell lung): > 100 µM
- TGI (HOP-18 NSCLC): > 100 µM
- TGI (KM20L2 colon): > 100 µM
- TGI (LXFL 529 NSCLC): > 100 µM
- TGI (RXF-631 renal): > 100 µM
- TGI (SNB-78 CNS): > 100 µM
- TGI (XF 498 CNS): > 100 µM

Structure (SMILES): Cc1cc2c(cc1C)[n+](=O)c(C(=O)/C=C/c1ccc(Cl)cc1)c(C)n2[O-]
- TGI (DLD-1 colon): 70.9 µM
- TGI (DMS 273 small cell lung): > 100 µM
- TGI (HOP-18 NSCLC): > 100 µM
- TGI (KM20L2 colon): > 100 µM
- TGI (LXFL 529 NSCLC): > 100 µM
- TGI (SNB-78 CNS): > 100 µM
- TGI (XF 498 CNS): 68.6 µM

Structure (SMILES): C=C(C)C(=O)OC1CC2(C)OC2CC(OC(C)=O)/C(C)=C/C2OC(=O)C(=C)C21 (stereo unspecified)
- TGI (MDA-N): 8.59 µM

Structure (SMILES): Cn1cc(NC(=O)c2cc(NC(=O)Nc3cc(C(=O)Nc4cc(C(=O)NCCC(=N)N)n(C)c4)n(C)c3)cn2C)cc1C(=O)NCCC(=N)N
- TGI (DLD-1 colon): > 100 µM
- TGI (DMS 273 small cell lung): 29.6 µM
- TGI (HOP-18 NSCLC): > 100 µM
- TGI (KM20L2 colon): > 100 µM
- TGI (LXFL 529 NSCLC): > 100 µM
- TGI (RXF-631 renal): 56.9 µM
- TGI (SNB-78 CNS): 82 µM
- TGI (XF 498 CNS): 45.8 µM

Structure (SMILES): N=S(=O)(c1ccccc1)c1ccccc1[N+](=O)[O-] (stereo unspecified)
- TGI (DLD-1 colon): > 100 µM
- TGI (DMS 273 small cell lung): > 100 µM
- TGI (HOP-18 NSCLC): > 100 µM
- TGI (KM20L2 colon): > 100 µM
- TGI (LXFL 529 NSCLC): > 100 µM
- TGI (RXF-631 renal): > 100 µM
- TGI (SNB-78 CNS): > 100 µM
- TGI (XF 498 CNS): > 100 µM

Structure (SMILES): O=C(Nc1c(Cl)cc([N+](=O)[O-])cc1Cl)C(=O)C1C(=O)NC(=S)NC1=O
- TGI (MDA-N): > 100 µM

Structure (SMILES): CCN(CC)CC(=O)/C=C/c1ccc(C)cc1
- TGI (DLD-1 colon): 59.6 µM
- TGI (DMS 273 small cell lung): 55 µM
- TGI (HOP-18 NSCLC): 59.6 µM
- TGI (KM20L2 colon): 49.4 µM
- TGI (LXFL 529 NSCLC): 33 µM
- TGI (SNB-78 CNS): > 100 µM
- TGI (XF 498 CNS): 92.4 µM

Structure (SMILES): CCNc1c(C(=O)N(CC)CC)c(=O)[nH]c2ncccc12
- TGI (DLD-1 colon): > 100 µM
- TGI (DMS 273 small cell lung): > 100 µM
- TGI (KM20L2 colon): > 100 µM
- TGI (LXFL 529 NSCLC): > 100 µM
- TGI (SNB-78 CNS): > 100 µM

Structure (SMILES): CC(=N\O)/C(C)=N/O.CC(=N\O)/C(C)=N/O.CC(=N\O)/C(C)=N/O.CC(=N\O)/C(C)=N/O.[Cu].[Cu]
- GI50 (MDA-N): 20.5 µM
- TGI (MDA-N): 43.5 µM

Structure (SMILES): O=C1CCC2CCc3cccc4oc1c2c34 (stereo unspecified)
- TGI (DLD-1 colon): > 100 µM
- TGI (DMS 273 small cell lung): > 100 µM
- TGI (HOP-18 NSCLC): > 100 µM
- TGI (KM20L2 colon): > 100 µM
- TGI (LXFL 529 NSCLC): > 100 µM
- TGI (SNB-78 CNS): > 100 µM
- TGI (XF 498 CNS): > 100 µM

Structure (SMILES): CCOC(=O)C(=O)C1C(=O)Nc2ccccc21 (stereo unspecified)
- TGI (DLD-1 colon): > 100 µM
- TGI (DMS 273 small cell lung): > 100 µM
- TGI (LXFL 529 NSCLC): > 100 µM
- TGI (RXF-631 renal): > 100 µM
- TGI (XF 498 CNS): > 100 µM
